From US20240287138A1, “CYCLIC PEPTIDES FOR INHIBITING TNF RECEPTOR 1 ACTIVITY” (Merck Sharp & Dohme LLC, priority 2023, published 2024)
Numbered stars: 1 amine (or outer) side, 2 acyl side, 3 side chain; on linkers, the order of the positions; unused ones are H or OH. Bridge positions count the residues as written; N and C are the ends. Square brackets hold non-standard residues; d marks the D form. Peptide text beside a SMILES is read from it. * marks the point of attachment. Trp(βS-Me,7-OMe) = COc1cccc2c([C@H](C)[C@H](N)C(=O)O)c[nH]c12; Trp(7-CN) = N#Cc1cccc2c(C[C@H](N)C(=O)O)c[nH]c12; Trp(7-Cl) = N[C@@H](Cc1c[nH]c2c(Cl)cccc12)C(=O)O; Phe(4-CONH2) = NC(=O)c1ccc(C[C@H](N)C(=O)O)cc1; Phe(4-COOH) = N[C@@H](Cc1ccc(C(=O)O)cc1)C(=O)O; Trp(7-aza) = N[C@@H](Cc1c[nH]c2ncccc12)C(=O)O; X3 = C[C@H](c1ccncc1)[C@H](N[*:1])C(=O)[*:2]; dPro(4S-NH2) = N[C@@H]1CN[C@@H](C(=O)O)C1; Pip(5R-OH) = O=C(O)[C@@H]1CC[C@@H](O)CN1; X1 = O=C([C@@H]1CC[C@H](N[*:1])C1)[*:2]; Pip(4-aza) = O=C(O)[C@@H]1CNCCN1; 4Pal = N[C@@H](Cc1ccncc1)C(=O)O; NMeE = CN[C@@H](CCC(=O)O)C(=O)O; dHyp = O=C(O)[C@H]1C[C@H](O)CN1; Ahp(2) = CCCCC[C@H](N)C(=O)O; αMeS = C[C@](N)(CO)C(=O)O; Carboxymethyl = O=C(O)C*; Nle = CCCC[C@H](N)C(=O)O; Ethyl(2-NH2) = NCC*; Sar = CNCC(=O)O

Legend:
[1] = target: T1, TNFα-induced NF-κB signal transduction pathway (TNFR1 signaling) in THP-1 cells (Homo sapiens, UniProt P19438); test: THP-1 Lucia NF-κB reporter cell assay, inhibition of TNFα-induced NF-κB signaling; format: cell-based; settings: THP-1 NF-κB Lucia reporter cells, 10 ng/mL TNFα, 16-18 h, secreted luciferase; read-out: THP-1 IC50
T1 sequence (P19438 30-455): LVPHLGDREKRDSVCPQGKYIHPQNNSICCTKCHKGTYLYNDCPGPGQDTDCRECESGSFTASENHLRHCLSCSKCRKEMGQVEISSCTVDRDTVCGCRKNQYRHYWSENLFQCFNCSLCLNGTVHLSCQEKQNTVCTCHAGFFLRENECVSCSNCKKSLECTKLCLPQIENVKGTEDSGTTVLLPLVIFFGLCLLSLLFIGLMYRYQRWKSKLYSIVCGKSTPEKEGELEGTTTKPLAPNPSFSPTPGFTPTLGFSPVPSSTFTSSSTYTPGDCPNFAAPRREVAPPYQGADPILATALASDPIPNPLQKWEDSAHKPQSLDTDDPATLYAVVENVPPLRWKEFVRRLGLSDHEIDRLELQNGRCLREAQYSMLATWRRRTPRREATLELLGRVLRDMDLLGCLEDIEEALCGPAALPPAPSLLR
Summary of the method: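 IC50 from a 4-parameter logistic fit of secreted luciferase luminescence (QUANTI-Luc), normalised to min/max controls. Reporter THP-1 cells were exposed to peptides for 1 h at 37 °C before 10 ng/mL TNFα (final) was added overnight (16–18 h).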

human TNFR2 ECD protein = target: T2, human TNFR2 ECD protein (Homo sapiens, UniProt P20333); test: SPR off-target binding (selectivity) to human TNFR2 ECD
T2 construct: HRV 3C protease cleavage site (C); 6His (C, cleaved yes); made in house; host or cells: Sf21 insect cells (baculovirus), secreted
T2 sequence (P20333 23-257): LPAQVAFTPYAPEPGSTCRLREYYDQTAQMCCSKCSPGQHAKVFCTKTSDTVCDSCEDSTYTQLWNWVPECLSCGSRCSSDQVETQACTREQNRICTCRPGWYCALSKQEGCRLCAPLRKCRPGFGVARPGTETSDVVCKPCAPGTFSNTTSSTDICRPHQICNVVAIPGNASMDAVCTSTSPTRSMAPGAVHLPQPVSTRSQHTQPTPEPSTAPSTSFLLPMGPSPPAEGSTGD
Summary of the method: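 Peptides are tested against captured biotin-tagged human TNFR1 ECD, with parallel TNFR2 ECD binding to check selectivity. Buffer: 10 mM HEPES pH 7.4, 150 mM NaCl, 3 mM EDTA, 0.05% P20, 2% DMSO.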

CCCCC[C@@H]1NC(=O)[C@@H]2CC[C@@H](C2)NC(=O)[C@H]([C@@H](C)c2c[nH]c3c(OC)cccc23)NC(=O)CN(C)C(=O)[C@H](Cc2ccc(C(N)=O)cc2)NC(=O)[C@H](Cc2ccc(C(N)=O)cc2)NC(=O)[C@](C)(CO)NC(=O)[C@H](Cc2c[nH]c3c(C#N)cccc23)NC(=O)[C@H](Cc2ccc(C(=O)O)cc2)NC(=O)[C@H](CC(N)=O)NC(=O)[C@H]2C[C@H](OCC(=O)O)CN2C(=O)[C@H](Cc2c[nH]c3ccccc23)NC(=O)[C@@H]2CNCCN2C(=O)[C@H](Cc2ccncc2)NC1=O [SEQ ID NO. 140] (cyclo([4Pal][Pip(4-aza)]W[dHyp](Carboxymethyl)N[Phe(4-COOH)][Trp(7-CN)][αMeS][Phe(4-CONH2)][Phe(4-CONH2)][Sar][Trp(βS-Me,7-OMe)][X1][Ahp(2)]))
IC50 [1]: 0.5 nM
Kd (human TNFR2 ECD protein): > 1000 nM

CCCC[C@@H]1NC(=O)[C@@H]2CC[C@@H](C2)NC(=O)[C@H]([C@@H](C)c2c[nH]c3c(OC)cccc23)NC(=O)CN(C)C(=O)[C@H](Cc2ccc(O)cc2)NC(=O)[C@H](Cc2ccc(C(=O)O)cc2)NC(=O)[C@](C)(CO)NC(=O)[C@H](Cc2c[nH]c3c(Cl)cccc23)NC(=O)[C@H](Cc2ccncc2)NC(=O)[C@H](CC(N)=O)NC(=O)CN(C)C(=O)[C@H](Cc2c[nH]c3ccccc23)NC(=O)[C@@H]2CNCCN2C(=O)[C@H](Cc2ccncc2)NC1=O [SEQ ID NO. 141] (cyclo([4Pal][Trp(7-Cl)][αMeS][Phe(4-COOH)]Y[Sar][Trp(βS-Me,7-OMe)][X1][Nle][4Pal][Pip(4-aza)]W[Sar]N))
IC50 [1]: 1.2 nM
Kd (human TNFR2 ECD protein): > 1000 nM

CCCC[C@@H]1NC(=O)CSC[C@@H](C(N)=O)NC(=O)[C@H]([C@@H](C)c2c[nH]c3c(OC)cccc23)NC(=O)CN(C)C(=O)[C@H](Cc2ccc(O)cc2)NC(=O)[C@H](Cc2ccc(C(=O)O)cc2)NC(=O)[C@](C)(CO)NC(=O)[C@H](Cc2c[nH]c3c(Cl)cccc23)NC(=O)[C@H](Cc2ccncc2)NC(=O)[C@H](CC(N)=O)NC(=O)[C@H](CCC(=O)O)N(C)C(=O)[C@H](Cc2c[nH]c3ncccc23)NC(=O)[C@H](CO)NC(=O)[C@H]([C@H](C)c2ccncc2)NC1=O [SEQ ID NO. 143] ({CH2CO}-[Nle][X3]S[Trp(7-aza)][NMeE]N[4Pal][Trp(7-Cl)][αMeS][Phe(4-COOH)]Y[Sar][Trp(βS-Me,7-OMe)]C-NH2; thioether N-14)
IC50 [1]: 2.2 nM
Kd (human TNFR2 ECD protein): > 1000 nM

CCCC[C@@H]1NC(=O)[C@@H]2CC[C@@H](C2)NC(=O)[C@H]([C@@H](C)c2c[nH]c3c(OC)cccc23)NC(=O)CN(C)C(=O)[C@H](Cc2ccc(O)cc2)NC(=O)[C@H](Cc2ccc(C(N)=O)cc2)NC(=O)[C@](C)(CO)NC(=O)[C@H](Cc2c[nH]c3c(Cl)cccc23)NC(=O)[C@H](Cc2ccncc2)NC(=O)[C@H](CC(N)=O)NC(=O)[C@H]2C[C@H](N)CN2C(=O)[C@H](Cc2c[nH]c3ccccc23)NC(=O)[C@@H]2CC[C@@H](O)CN2C(=O)[C@H](Cc2ccncc2)NC1=O [SEQ ID NO. 144] (cyclo([4Pal][Trp(7-Cl)][αMeS][Phe(4-CONH2)]Y[Sar][Trp(βS-Me,7-OMe)][X1][Nle][4Pal][Pip(5R-OH)]W[dPro(4S-NH2)]N))
IC50 [1]: 0.6 nM
Kd (human TNFR2 ECD protein): > 1000 nM

COc1cccc2c([C@H](C)[C@@H]3NC(=O)CN(C)C(=O)[C@H](Cc4ccc(C(=O)O)cc4)NC(=O)[C@H](Cc4ccc(C(N)=O)cc4)NC(=O)[C@](C)(CO)NC(=O)[C@H](Cc4c[nH]c5c(Cl)cccc45)NC(=O)[C@H](Cc4ccc(C(=O)O)cc4)NC(=O)[C@H](CC(N)=O)NC(=O)[C@H]4C[C@H](O)CN4C(=O)[C@H](Cc4c[nH]c5ncccc45)NC(=O)[C@@H]4CC[C@@H](O)CN4C(=O)[C@H](Cc4ccncc4)NC(=O)[C@H](COCCN)NC(=O)[C@@H]4CC[C@@H](C4)NC3=O)c[nH]c12 [SEQ ID NO. 148] (cyclo([4Pal][Pip(5R-OH)][Trp(7-aza)][dHyp]N[Phe(4-COOH)][Trp(7-Cl)][αMeS][Phe(4-CONH2)][Phe(4-COOH)][Sar][Trp(βS-Me,7-OMe)][X1]S(Ethyl(2-NH2))))
IC50 [1]: 2.8 nM
Kd (human TNFR2 ECD protein): > 1000 nM
